According to PubChem BioAssay AID179 (DTP/NCI, 2004):
Calls of active or inactive are those of the source.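 Rule for the calls: active = compounds giving half or more protection of infected cells from virus-caused growth loss, again on retest; inactive = the rest.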

System: CEM cells HIV-1 protection, formazan growth assay
Experiment: NCI AIDS Antiviral Assay
Conditions: for IC50: measured here: growth of uninfected CEM cells
How it was run: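 Five concentrations of each compound were applied to infected and uninfected human CEM cells. Protection from HIV-1 was judged from growth measured with a soluble formazan assay.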

| SMILES | EC50 [µM] | IC50 [µM] | outcome |
| --- | --- | --- | --- |
| CCOC(=O)CC1C(C(=O)OCC)=Cn2c([nH]c3cccc4cccc2c43)=C1C(=O)OCC (configuration not stated) | > 200 | 30.9 | – |
| COC(=O)c1cc(S(=O)(=O)NC2=NCC(C)NN2)c(S)cc1Cl (configuration not stated) | > 200 | 17 | – |
| Clc1cc(Cl)cc(C2ON=C(c3ccccc3)N2C23CC4CC(CC(C4)C2)C3)c1 (configuration not stated) | > 200 | > 200 | – |
| Nc1nc(N)c(N)c(Nc2ccccc2)n1 | > 200 | 20.4 | – |
| COC(=O)c1ccc2n[se]nc2c1 | – | – | inactive |
| CCCCCCCCCCO/N=C\c1c2c(O)c3c(O)c(C)c4c(c3c1O)C(=O)C(C)(O/C=C\C(OC)C(C)C(OC(C)=O)C(C)C(O)C(C)C(O)C(C)/C=C\C=C(\C)C(=O)N2)O4 (configuration not stated) | > 200 | 3.02 | – |
| Oc1ccc(C2Oc3cc(O)c4cc3C2c2c3c(cc5c2[C@@H](c2cc(O)cc(O)c2)C(c2ccc(O)cc2)O5)O[C@@H](c2ccc(O)cc2)C3c2cc(O)cc3c2C4[C@H](c2ccc(O)cc2)O3)cc1 (some centres not stated) | > 15.8 | > 15.8 | – |
| COC(=O)CN1SC2(SC13C(C)(C)C(=O)C3(C)C)C(C)(C)C(=O)C2(C)C | > 200 | 50.1 | – |
| Cc1ccc(N=Nc2c(C)nn(C(=O)CC(=O)Nc3ccccc3)c2C)cc1C | > 200 | > 200 | – |
| C/C(CC(O)(C(F)(F)F)C(F)(F)F)=N\O | > 200 | > 200 | – |
| CCOC(=N)CNC(=O)c1ccccc1 | > 200 | > 200 | – |
| COc1ccc2c(c1)-c1oc3ccccc3c(=O)c1CO2 | > 200 | 32.4 | – |
| C(/C=N/NC1=NCCCN1)=N\NC1=NCCCN1 | 162 | > 200 | – |
| Nc1nc(Cl)cc(OCC2(CO)CCCCC2)n1 | > 200 | 53.7 | – |
| O=C1N(Cc2ccccc2)C2CSCC2N1Cc1ccccc1 (configuration not stated) | > 200 | 87.1 | – |
| OC1CCN2Cc3ccccc3N=C12 (configuration not stated) | > 200 | > 200 | – |
| CC12CC(=O)NN=C1c1ccccc1C2 (configuration not stated) | – | – | inactive |
| CCC[CH2][Sn]1([CH2]CCC)[O]C(=O)C2C(C(=O)[O]1)C1(Cl)C(Cl)=C(Cl)C2(Cl)C1(Cl)Cl (configuration not stated) | > 200 | 0.182 | – |
| COc1ccc2c(c1)C(=O)CC(c1ccccc1)O2 (configuration not stated) | > 200 | > 200 | – |
| O=[N+]([O-])c1cc(C2ON=C(c3ccccc3)N2C23CC4CC(CC(C4)C2)C3)ccc1Cl (configuration not stated) | > 200 | 81.3 | – |
| CCOP1(=O)CC(C)=C(Cl)C(O)C1 (configuration not stated) | > 200 | > 200 | – |
| O=C1CCC(=O)N2c3ccccc3-c3ccccc3N12 | > 191 | > 191 | – |

| SMILES | EC50 [µM] | IC50 [µM] | outcome |
| --- | --- | --- | --- |
| COC1/C=C/OC2(C)Oc3c(C)c(O)c4c(O)c(c(/C=N/N(C)c5ncnc6c5ncn6C5OC(CO)C(O)C5O)c(O)c4c3C2=O)NC(=O)C(C)=C/C=C/C(C)C(O)C(C)C(O)C(C)C(OC(C)=O)C1C (configuration not stated) | > 200 | 110 | – |
| CCC(CC)n1cc(C(=O)NC(=O)NCCCCCOC(=O)CCCCCCCCCCC(=O)OCCCCCNC(=O)NC(=O)c2cn(C(CC)CC)c(=O)[nH]c2=O)c(=O)[nH]c1=O | > 20.9 | > 20.9 | – |
| COc1ccccc1/C=C1\SC(=S)N(/C=C2\C(=O)Oc3ccccc3C2=O)C1=O | > 200 | 27.5 | – |
| COc1ccc(C2C(C#N)=C(S)N(C3OC(COC(C)=O)C(OC(C)=O)C(OC(C)=O)C3OC(C)=O)C(C)=C2C(C)=O)cc1 (configuration not stated) | > 200 | 53.7 | – |
| CCOC(=O)C(=Cc1cc(OC)ccc1OC)C(=O)OCC | > 117 | 18.2 | – |
| O=S(=O)(O)c1cc(N=Nc2ccc(O)c3ccccc23)ccc1/C=C/c1ccc(N=Nc2ccc(O)c3ccccc23)cc1S(=O)(=O)O | 13.5 | 50.1 | – |
| Cc1cc(N(CCC#N)S(=O)(=O)c2ccccc2)ccc1C=Nc1cccc(C(=O)O)c1 | > 151 | > 151 | – |
| CN(C)CCCNc1cc[n+](C)c2cccc([N+](=O)[O-])c12 | > 200 | 10.5 | – |
| CCOC(=O)CCCN(C(=O)c1ccccc1)c1scc(-c2ccccc2)c1C(=O)OCC | > 200 | 11.5 | – |
| Cc1ccc(S(=O)Cc2ccc(C(=O)O)cc2[N+](=O)[O-])cc1 (configuration not stated) | – | – | inactive |
| CN(C)C(=S)/N=c1\ss/c(=N/C(=S)N(C)C)n1-c1ccc([N+](=O)[O-])cc1 | > 200 | 151 | – |
| CCCCc1ccc(Nc2nc(Cl)c3c(ncn3COCCOC(C)=O)n2)cc1 | > 200 | 33.1 | – |
| NC(N)=NCCCC(NC(=O)OCCCCCn1ccc(N)nc1=O)C(=O)O (configuration not stated) | > 200 | > 200 | – |
| CCOC(=O)CNC(=O)c1[nH]cnc1/N=N/N(C)C | – | 933 | inactive |
| OCCNc1nc(Cl)nc(Cl)n1 | > 200 | > 200 | – |
| CCOC(=O)Cc1nc2sc(S(N)(=O)=O)nn2c1Br | > 200 | 10 | – |
| O=C(/C=C/c1ccc(-c2ccccc2)cc1)c1ccccc1 | > 13.2 | > 13.2 | – |
| CC1CCN(C2=CC(=O)C(=O)c3cccnc32)CC1 | – | – | inactive |
| CCOC(=O)C(C(=O)c1ccccc1C(=O)OC)=P(c1ccccc1)(c1ccccc1)c1ccccc1 | 22.9 | 52.5 | – |
| CCOC(=O)/C(N=O)=C(/O)CC(C)C | > 200 | > 200 | – |
| CCCCS(=O)(=O)CCC(N)C(=O)O (configuration not stated) | > 100 | > 100 | – |
| CCOC(=O)Cn1nc2oc(=O)c(CCN3CCN(c4ccccc4OC)CC3)c(C)c2c1C | > 200 | > 200 | – |

| SMILES | EC50 [µM] | IC50 [µM] | outcome |
| --- | --- | --- | --- |
| O=C1CC(C2(O)C(=O)Nc3ccc([N+](=O)[O-])cc32)c2ccccc21 (configuration not stated) | > 55 | > 55 | – |
| Cc1cc(O)cc2c1CC=C1C(=C2)C(=O)C(=O)C(C(C)C)=C1O | – | – | inactive |
| C1CSCCSCCSCCSCCS1 | > 17.4 | > 17.4 | – |
| CN(C)CC1CCCC/C1=N/OC(=O)c1ccc(Cl)c(Cl)c1 (configuration not stated) | – | – | inactive |
| COc1ccc(/C=C2\C(=O)NC(=O)c3ccccc32)cc1OC | > 60.3 | 31.6 | – |
| COc1ccc(NC(=S)N/N=C\c2ccc(NC(C)=O)cc2)cc1 | – | – | inactive |
| CC1CCC2(CC1)CC(=O)N(N1CCCCC1)C2=O (configuration not stated) | > 200 | > 200 | – |
| Cc1cc(=O)oc2c3c(cc(OCc4ccccc4)c12)OC(C)(C)[C@H](OC(=O)C12CCC(C)(C(=O)O1)C2(C)C)[C@@H]3OC(=O)C12CCC(C)(C(=O)O1)C2(C)C (some centres not stated) | > 200 | 44.7 | – |
| O=[N+]([O-])c1ccc(-c2ccc(C3=Nn4c(nnc4-c4ccc(Cl)cc4)SC3)o2)cc1 | > 1.74 | > 1.74 | – |
| COc1c(Cl)cc(C(=Cc2c(F)c(F)c(F)c(F)c2F)c2cc(Cl)c(OC)c(C(=O)O)c2)cc1C(=O)O | 324 | 490 | – |
| Cc1cc2c(=O)c3ccccc3[nH]c2c(C(N)=O)c1C | – | – | inactive |
| C[Si](C)(C)/C=C/CN1C(=O)CCC1O (configuration not stated) | – | – | inactive |
| C/C=N\n1c(C)c(C#N)c(C#N)c1N | > 200 | > 200 | – |
| Clc1ccc(CCn2cncn2)c(Cl)c1 | > 891 | 437 | – |
| CCOC(=O)CN1C(=O)S/C(=C2\C(=O)N(C)c3ccc(Br)cc32)C1=O | > 200 | > 200 | – |
| Cc1c(C)c2c(c(N)c1C#N)C(=O)N(O)C2=O | > 200 | > 200 | – |
| CC1C(NNC(N)=O)Oc2cc3c(cc2C1c1ccccc1O)OCO3 (configuration not stated) | > 200 | 32.4 | – |
| O=C(CCc1nc(=S)[nH][nH]1)Nc1ccccc1Cl | > 457 | > 457 | – |
| O=C1c2c(O)cc(O)c(OC3OC(CO)C(O)C(O)C3O)c2OC(c2ccc(O)c(O)c2)C1O (configuration not stated) | > 513 | 57.5 | – |
| O=C1N/C(=C\[N+](=O)[O-])c2ccccc21 | > 501 | 263 | – |
| CCN(CCN1C(=O)C2CCCCC2C1=O)c1ccc(N=O)c(C)c1 (configuration not stated) | > 200 | 1.78 | – |
| COC(=O)[C@H](Cc1ccccc1)NC(=O)N1CCCN(C(=O)N[C@@H](Cc2ccccc2)C(=O)OC)CCCN(C(=O)N[C@@H](Cc2ccccc2)C(=O)OC)CCC1 | > 100 | 27.5 | – |

| SMILES | EC50 [µM] | IC50 [µM] | outcome |
| --- | --- | --- | --- |
| N=C(N)c1ccc(N=Nc2ccc(N)cc2N)cc1 | > 200 | 51.3 | – |
| CN(C)c1ccc(/C=C(\NC(=O)c2ccccc2)C2NC(Cc3c[nH]c4ccccc34)C(=O)O2)cc1 (configuration not stated) | > 100 | 8.71 | – |
| C[N+](C)=C1C=CC(=C2C=C(c3ccccc3)Oc3ccccc32)C=C1 | > 200 | 1.17 | – |
| O=[N+]([O-])c1ccc2c(c1)N([O-])C1(CCCCC1)[N+]2=O | > 200 | 3.98 | – |
| CC1CC[C@@H](C(C)C)[C@H](Oc2nnc(C3OC(CO)C(O)C3O)o2)C1 (some centres not stated) | > 200 | > 200 | – |
| Cc1[nH]c(NC(=O)C(=O)O)c(C#N)c1C | > 200 | > 200 | – |
| Cc1c([N+](=O)[O-])ccc2c1C(=O)c1ccccc1C2=O | > 200 | 28.2 | – |
| CCCCCc1nnc2n1N=C(c1ccc(Cl)cc1)CS2 | > 200 | > 200 | – |
| NC(=O)c1cnc2sc3ccccc3n2c1=O | > 200 | > 200 | – |
| CN(C)CCCN1N=Nc2cccc3cccc1c23 | – | – | inactive |
| CCOC(=O)c1[nH]c2c(OCC)nc(OCC)nc2c1Br | > 200 | > 200 | – |
| C=C(CN(CC)CC)C1(c2ccccc2)CC2(CCCC2)C(=O)O1 (configuration not stated) | > 200 | 117 | – |
| CCN(CC)CC1CCCCN1CC(=O)N1c2ccccc2NC(=O)c2ccccc21 (configuration not stated) | > 200 | > 200 | – |
| CN(NC(=O)c1cccs1)C1=NCCCN1 | > 200 | > 200 | – |
| COC(=O)c1ccc(/C=C/S(=O)(=O)c2ccccc2)cc1 | > 4.79 | > 4.79 | – |
| CCCCCCCCCCCCCCCCSS(=O)(=O)c1ccc(C)cc1 | > 31.6 | > 31.6 | – |
| CC1(C23CC4CC(CC(C4)C2)C3)n2c(=O)n(-c3ccccc3)c(=O)n2C1(C)C12CC3CC(CC(C3)C1)C2 (configuration not stated) | > 50.1 | > 50.1 | – |
| Cc1nccc2c(C(=O)O)c(C(=O)O)[nH]c12 | > 170 | > 170 | – |
| CC(C)(C)c1cc(C2NC(=O)NC2=O)cc(C(C)(C)C)c1O (configuration not stated) | > 20 | > 20 | – |
| NC(c1ccccc1)P(=O)(O)O (configuration not stated) | > 200 | > 200 | – |
